From patent publication US10894798B2, “Substituted dihydropyrrolopyrazole derivative” (UBE INDUSTRIES, LTD., priority 2015, dated 2021) come the findings set out here.

Assay [1] relates to human large intestine cancer cell line (HCT-116). The assay is described as follows: Human large intestine cancer (HCT-116) cell growth inhibition test. The assay is classed as cell-based. Summed up:
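HCT-116 cells were seeded at 0.5 to 2.0×10^3 cells/well in McCoy's 5A with 10% FBS and dosed with compound at 0.1% final DMSO after overnight culture. Growth was measured by sulforhodamine B absorbance after 3 days. GI50 was calculated from the inhibition rate at each concentration.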

In another assay the target is T1, PLK1 (Homo sapiens, UniProt P53350).
T1 construct: purchased Carna Biosciences, Inc. 05-157
The assay is described as follows: PLK1 enzyme (polo-like kinase) inhibition test. It is filed as biochemical. Conditions: [γ-33P]ATP, casein substrate; Ki=IC50/(1+S/Km); read-out: Ki value of PLK1 inhibitory activity. Summed up: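 Recombinant PLK1 phosphorylates casein with [γ-^33P]ATP in MOPS buffer (pH 7.0) containing DTT and magnesium acetate, 20 min at 30° C. Reaction stopped with TCA; washed precipitate counted by liquid scintillation. IC50 for inhibition of ^33P incorporation into casein, converted to Ki via Ki=IC50/(1+S/Km).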

A further assay addresses T2, CDK2 (Homo sapiens, UniProt P24941).
T2 construct: purchased Invitrogen Corp. PV3267
Briefly: CDK2 enzyme inhibition test. It is filed as biochemical. Conditions: [γ-33P]ATP, MBP substrate; Ki=IC50/(1+S/Km); read-out: Ki value of CDK2 inhibitory activity. In a few lines: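 Commercial CDK2 phosphorylated MBP with [γ-33P]ATP (500 μM solution before mixing) in HEPES pH 7.4 buffer with DTT, Triton X-100 and MgCl2 for 20 min at 30 °C. TCA-precipitated 33P-MBP was counted by scintillation to give the IC50. Ki = IC50/(1+S/Km), with S the ATP concentration in the reaction.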

Setting [2] is: HCT-116 (row of Table 50), read-out: GI50 value (concentration necessary for inhibiting 50% of cell growth).
Where [3] appears, read: HCT-116, 72 h, culture for 3 days, sulforhodamine B, read-out: GI50 value, HCT-116 cell growth inhibition.

Each structure is given as a SMILES string. Like-named read-outs stand apart in the source and are kept apart here. Where only a bound is given, the exact number is not on record here.

T1 sequence (P53350 whole entry): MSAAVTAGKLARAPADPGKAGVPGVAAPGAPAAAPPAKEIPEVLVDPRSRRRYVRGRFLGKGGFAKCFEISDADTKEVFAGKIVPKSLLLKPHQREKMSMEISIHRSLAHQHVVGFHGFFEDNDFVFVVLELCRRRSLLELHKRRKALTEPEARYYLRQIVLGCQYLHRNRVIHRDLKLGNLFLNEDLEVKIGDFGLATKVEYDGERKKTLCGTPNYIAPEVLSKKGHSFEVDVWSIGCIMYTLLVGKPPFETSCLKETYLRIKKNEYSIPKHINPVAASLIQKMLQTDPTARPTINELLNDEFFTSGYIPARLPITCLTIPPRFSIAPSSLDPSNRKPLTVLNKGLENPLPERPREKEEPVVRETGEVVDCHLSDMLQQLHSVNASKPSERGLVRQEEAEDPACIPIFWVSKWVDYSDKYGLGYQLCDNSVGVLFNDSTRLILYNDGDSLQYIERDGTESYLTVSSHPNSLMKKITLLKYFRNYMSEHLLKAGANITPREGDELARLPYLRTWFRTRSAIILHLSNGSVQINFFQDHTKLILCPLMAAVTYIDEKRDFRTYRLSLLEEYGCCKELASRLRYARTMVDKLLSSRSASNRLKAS

What is called Ki is the equilibrium dissociation constant of an inhibitor or competing ligand from its target. For the molecule `CC1(C)c2[nH]nc(NC(=O)C3([Si](C)(C)C)CCC3)c2CN1C(=O)Nc1ccccc1F` [IV-3, N-(2-Fluorophenyl)-6,6-dimethyl-3-[1-(trimethylsilyl)cyclobutanecarboxamido]-4,6-dihydropyrrolo[3,4-c]pyrazole-5(1H)-carboxamide], the GI50 in assay [1] (setting [2]) is < 300 nM; in assay [1] (setting [3]), ≤ 100 nM. For the same molecule, the Ki was ≥ 5 µM on PLK1 and ≥ 1000 nM at CDK2.
Regarding `CC1(C)c2[nH]nc(NC(=O)C3([Si](C)(C)C)CCC3)c2CN1C(=O)Nc1ccccc1Br` [IV-15, N-(2-Bromophenyl)-6,6-dimethyl-3-[1-(trimethylsilyl)cyclobutanecarboxamido]-4,6-dihydropyrrolo[3,4-c]pyrazole-5(1H)-carboxamide], in assay [1] (setting [3]), the GI50 was ≤ 100 nM. Besides, the figures for the Ki at PLK1 and at CDK2 were ≥ 5 µM and ≥ 1000 nM, respectively.
On the same counts, the results for `Cc1ccccc1NC(=O)N1Cc2c(NC(=O)C3([Si](C)(C)C)CCC3)n[nH]c2C1(C)C` [IV-21, 6,6-Dimethyl-N-(o-tolyl)-3-[1-(trimethylsilyl)cyclobutanecarboxamido]-4,6-dihydropyrrolo[3,4-c]pyrazole-5(1H)-carboxamide] are ≤ 100 nM, ≥ 5 µM and ≥ 1000 nM.
On the same counts, the results for `CC1(C)c2[nH]nc(NC(=O)C3([Si](C)(C)C)CCC3)c2CN1C(=O)Nc1c(F)cccc1Cl` [IV-113, N-(2-Chloro-6-fluorophenyl)-6,6-dimethyl-3-[1-(trimethylsilyl)cyclobutanecarboxamido]-4,6-dihydropyrrolo[3,4-c]pyrazole-5(1H)-carboxamide] are ≤ 100 nM, ≥ 5 µM and ≥ 1000 nM.
As for `Cc1ccc(F)c(NC(=O)N2Cc3c(NC(=O)C4([Si](C)(C)C)CCC4)n[nH]c3C2(C)C)c1` [IV-127, N-(2-Fluoro-5-methylphenyl)-6,6-dimethyl-3-[1-(trimethylsilyl)cyclobutanecarboxamido]-4,6-dihydropyrrolo[3,4-c]pyrazole-5 (1H)-carboxamide], the GI50 in assay [1] (setting [3]) is ≤ 100 nM. Moreover, the Ki at PLK1 is ≥ 5 µM; on CDK2, ≥ 1000 nM.
Taken in the same sequence, the figures for `Cc1cccc(F)c1NC(=O)N1Cc2c(NC(=O)C3([Si](C)(C)C)CCC3)n[nH]c2C1(C)C` [IV-129, N-(2-Fluoro-6-methylphenyl)-6,6-dimethyl-3-[1-(trimethylsilyl)cyclobutanecarboxamido]-4,6-dihydropyrrolo[3,4-c]pyrazole-5 (1H)-carboxamide] were ≤ 100 nM, ≥ 5 µM and ≥ 1000 nM.
With `CCc1cccc(F)c1NC(=O)N1Cc2c(NC(=O)C3([Si](C)(C)C)CCC3)n[nH]c2C1(C)C` [IV-137, N-(2-Ethyl-6-fluorophenyl)-6,6-dimethyl-3-[1-(trimethylsilyl)cyclobutanecarboxamido]-4,6-dihydropyrrolo[3,4-c]pyrazole-5(1H)-carboxamide], the GI50 in assay [1] (setting [3]) is ≤ 100 nM. In addition, the Ki was ≥ 5 µM on PLK1 and ≥ 1000 nM on CDK2.
Taken in the same sequence, the figures for `COc1cccc(F)c1NC(=O)N1Cc2c(NC(=O)C3([Si](C)(C)C)CCC3)n[nH]c2C1(C)C` [IV-161, N-(2-Fluoro-6-methoxyphenyl)-6,6-dimethyl-3-[1-(trimethylsilyl)cyclobutanecarboxamido]-4,6-dihydropyrrolo[3,4-c]pyrazole-5(1H)-carboxamide] were ≤ 100 nM, ≥ 5 µM and ≥ 1000 nM.
On the same counts, the results for `CC1(C)c2[nH]nc(NC(=O)C3([Si](C)(C)C)CCC3)c2CN1C(=O)Nc1c(F)cccc1OC(F)F` [IV-169, N-[2-(Difluoromethoxy)-6-fluorophenyl]-6,6-dimethyl-3-[1-(trimethylsilyl)cyclobutanecarboxamido]-4,6-dihydropyrrolo[3,4-c]pyrazole-5(1H)-carboxamide] are ≤ 100 nM, ≥ 5 µM and ≥ 1000 nM.
Taken in the same sequence, the figures for `CC1(C)c2[nH]nc(NC(=O)C3([Si](C)(C)C)CCC3)c2CN1C(=O)Nc1c(Cl)cccc1Cl` [IV-199, N-(2,6-Dichlorophenyl)-6,6-dimethyl-3-[1-(trimethylsilyl)cyclobutanecarboxamido]-4,6-dihydropyrrolo[3,4-c]pyrazole-5(1H)-carboxamide] were ≤ 100 nM, ≥ 5 µM and ≥ 1000 nM.
On to `Cc1cccc(Cl)c1NC(=O)N1Cc2c(NC(=O)C3([Si](C)(C)C)CCC3)n[nH]c2C1(C)C` [IV-215, N-(2-Chloro-6-methylphenyl)-6,6-dimethyl-3-[1-(trimethylsilyl)cyclobutanecarboxamido]-4,6-dihydropyrrolo[3,4-c]pyrazole-5 (1H)-carboxamide], for which the results for the GI50 in assay [1] (setting [2]) and in assay [1] (setting [3]) were < 300 nM and ≤ 100 nM, respectively. For the same molecule, the Ki at PLK1 was ≥ 5 µM; at CDK2, ≥ 1000 nM.
As for `COc1cccc(Cl)c1NC(=O)N1Cc2c(NC(=O)C3([Si](C)(C)C)CCC3)n[nH]c2C1(C)C` [IV-247, N-(2-Chloro-6-methoxyphenyl)-6,6-dimethyl-3-[1-(trimethylsilyl)cyclobutanecarboxamido]-4,6-dihydropyrrolo[3,4-c]pyrazole-5(1H)-carboxamide], the GI50 in assay [1] (setting [3]) was ≤ 100 nM. In addition, the Ki is ≥ 5 µM on PLK1 and ≥ 1000 nM on CDK2.
Regarding `Cc1cccc(Br)c1NC(=O)N1Cc2c(NC(=O)C3([Si](C)(C)C)CCC3)n[nH]c2C1(C)C` [IV-299, N-(2-Bromo-6-methylphenyl)-6,6-dimethyl-3-[1-(trimethylsilyl)cyclobutanecarboxamido]-4,6-dihydropyrrolo[3,4-c]pyrazole-5 (1H)-carboxamide], the GI50 in assay [1] (setting [2]) is < 300 nM; in assay [1] (setting [3]), ≤ 100 nM. The Ki at PLK1 is ≥ 5 µM; on CDK2 it was ≥ 1000 nM.
`Cc1cc(F)ccc1NC(=O)N1Cc2c(NC(=O)C3([Si](C)(C)C)CCC3)n[nH]c2C1(C)C` [IV-359, N-(4-Fluoro-2-methylphenyl)-6,6-dimethyl-3-[1-(trimethylsilyl)cyclobutanecarboxamido]-4,6-dihydropyrrolo[3,4-c]pyrazole-5 (1H)-carboxamide]: the GI50 in assay [1] (setting [3]) was ≤ 100 nM. Besides, the Ki at PLK1 is ≥ 5 µM; on CDK2 it was ≥ 1000 nM.
Regarding `Cc1ccc(F)cc1NC(=O)N1Cc2c(NC(=O)C3([Si](C)(C)C)CCC3)n[nH]c2C1(C)C` [IV-361, N-(5-Fluoro-2-methylphenyl)-6,6-dimethyl-3-[1-(trimethylsilyl)cyclobutanecarboxamido]-4,6-dihydropyrrolo[3,4-c]pyrazole-5 (1H)-carboxamide], the GI50 in assay [1] (setting [2]) is < 300 nM; in assay [1] (setting [3]) it was ≤ 100 nM. Also, the results for the Ki on PLK1 and at CDK2 were ≥ 5 µM and ≥ 1000 nM, respectively.
Taken in the same sequence, the figures for `Cc1ccc(C)c(NC(=O)N2Cc3c(NC(=O)C4([Si](C)(C)C)CCC4)n[nH]c3C2(C)C)c1` [IV-379, N-(2,5-Dimethylphenyl)-6,6-dimethyl-3-[1-(trimethylsilyl)cyclobutanecarboxamido]-4,6-dihydropyrrolo[3,4-c]pyrazole-5(1H)-carboxamide] were < 300 nM, ≤ 100 nM, ≥ 5 µM and ≥ 1000 nM.
Regarding `CCc1cccc(C)c1NC(=O)N1Cc2c(NC(=O)C3([Si](C)(C)C)CCC3)n[nH]c2C1(C)C` [IV-389, N-(2-Ethyl-6-methylphenyl)-6,6-dimethyl-3-[1-(trimethylsilyl)cyclobutanecarboxamido]-4,6-dihydropyrrolo[3,4-c]pyrazole-5 (1H)-carboxamide], in assay [1] (setting [3]), the GI50 is ≤ 100 nM. For the same molecule, the Ki at PLK1 is ≥ 5 µM; at CDK2 it was ≥ 1000 nM.
On the same counts, the results for `CC1(C)c2[nH]nc(NC(=O)C3([Si](C)(C)C)CCC3)c2CN1C(=O)Nc1c(F)ccc(F)c1F` [IV-597, 6,6-Dimethyl-N-(2,3,6-trifluorophenyl)-3-[1-(trimethylsilyl)cyclobutanecarboxamido]-4,6-dihydropyrrolo[3,4-c]pyrazole-5(1H)-carboxamide] are ≤ 100 nM, ≥ 5 µM and ≥ 1000 nM.
As for `Cc1ccc(C)c(NC(=O)N2Cc3c(NC(=O)C4([Si](C)(C)C)CCC4)n[nH]c3C2(C)C)c1F` [IV-669, N-(2-Fluoro-3,6-dimethylphenyl)-6,6-dimethyl-3-[1-(trimethylsilyl)cyclobutanecarboxamido]-4,6-dihydropyrrolo[3,4-c]pyrazole-5(1H)-carboxamide], the GI50 is < 300 nM in assay [1] (setting [2]) and ≤ 100 nM in assay [1] (setting [3]). The Ki at PLK1 was ≥ 5 µM; on CDK2 it was ≥ 1000 nM.
Taken in the same sequence, the figures for `CC1(C)c2[nH]nc(NC(=O)C3([Si](C)(C)C)CCC3)c2CN1C(=O)Nc1c(F)ccc2ccoc12` [IV-1049, N-(6-Fluorobenzofuran-7-yl)-6,6-dimethyl-3-[1-(trimethylsilyl)cyclobutanecarboxamido]-4,6-dihydropyrrolo[3,4-c]pyrazole-5 (1H)-carboxamide] were < 300 nM, ≤ 100 nM, ≥ 5 µM and ≥ 1000 nM.
